# Structures can show the parent of a compound that is named as a salt. Where two headings read alike, the source gives them in different places.
# What was measured:
# ileum of a guinea pig = ileum of a guinea pig (Cavia porcellus, UniProt P31389); experiment: cell-based
# Experimental: Pharmacological tests of the present compounds were conducted according to said method as follows:
# A male guinea pig having 300 to 500 g body weight is killed by blood letting. An ileum having length of 15 cm being enucleated from the ileocecal region is dipped into Tyrode's solution (which is prepared from 8.0 g of NaCl, 0.2 g of KCl, 0.2 g of CaCl2, 1.0 g of glucose, 1.0 g of NaHCO3, 0.065 g of NaHPO4.2H2 O and 0.2135 g of MgCl2.6H2 O to make 1000 ml in total volume by adding water). Then the tissue of ileum is cut to a length of 2.5 to 3.0 cm and suspended in an organ bath filled with 30 ml of Tyrode's solution. The organ bath is kept a temperature of 36° C. while blowing a mixed gas consisting of 5% of CO2 and 95% of O2 into the bath. 10 Minutes after the blowing, 10^-6 M of histamine is added to the bath to examine the sensitivity of the tissue and a reaction curve (control) with respect to the dosage of histamine is obtained. After the dosage of histamine-reaction curve (control) become constant 10^-6 g/ml of a compound to be tested is added to the bath and further histamine is added 5 minutes later to obtain dosage-reaction curve. Retraction of the ileum is recorded on a pen-recorder through an isotonic transducer (TD-112S manufactured by Nihon Koden).
# Acute toxicity test = settings: rat, in vivo; oral, male rats
# From the text: Each of the compounds of the present invention was orally administered to male rats to determine the acute toxicity.
# Male mice of ddy-strain = experiment: Halothane anesthesia increasing activity; format: in vivo, mouse; settings: for Time (minutes) between introduction of anesthesia and waking (righting reflex): oral, 32 mg/kg, 1 hour before 4% Halothane for 3 minutes, male ddy mice, saline control 4.2; for Halothane anesthesia increasing activity / central nervous controlling effect in words: compared with control (physiological saline solution)
# Experimental: Male mice of ddy-strain having about 20 g body weight were used. One test group consists of 10 mice. An aqueous Gummi Arabicum suspension of test compound (80 mg of a compound to be tested and 1 g of Gummi Arabicum/100 ml of physiological NaCl solution) was administered orally to each mouse at the dosage of 32 mg of test compound/kg body. One hour after the administration, each mouse was placed in gas respiration chamber (13×13×24 cm) and oxygen gas containing 4% of Halothane [2-bromo-2-chloro-1,1,1-trifluoroethane] was blown into the chamber at the velocity of 2 l/min for 3 minutes. A mouse anaesthetized was taken out from the chamber and the time between the introduction of anesthesia to waking was measured by righting reflex as the index. To mice of control group, 1% Gummi Arabicum aqueous physiological solution was orally administered at the dosage of 0.1 ml/kg body. (Reference: M. J. Turnbull and J. W. Watkins: Br. J. Pharmacol., 58, 27-35 (1976))
# [1] = histamine-induced retraction of guinea pig ileum, test compound 10^-6 g/ml, 36° C., Van Rossam method, read-out: pA2 (converted)
# [2] = histamine-induced retraction of guinea pig ileum, test compound 10^-6 g/ml, 36° C., Van Rossam method
# ileum of a guinea pig, sequence (P31389 whole entry): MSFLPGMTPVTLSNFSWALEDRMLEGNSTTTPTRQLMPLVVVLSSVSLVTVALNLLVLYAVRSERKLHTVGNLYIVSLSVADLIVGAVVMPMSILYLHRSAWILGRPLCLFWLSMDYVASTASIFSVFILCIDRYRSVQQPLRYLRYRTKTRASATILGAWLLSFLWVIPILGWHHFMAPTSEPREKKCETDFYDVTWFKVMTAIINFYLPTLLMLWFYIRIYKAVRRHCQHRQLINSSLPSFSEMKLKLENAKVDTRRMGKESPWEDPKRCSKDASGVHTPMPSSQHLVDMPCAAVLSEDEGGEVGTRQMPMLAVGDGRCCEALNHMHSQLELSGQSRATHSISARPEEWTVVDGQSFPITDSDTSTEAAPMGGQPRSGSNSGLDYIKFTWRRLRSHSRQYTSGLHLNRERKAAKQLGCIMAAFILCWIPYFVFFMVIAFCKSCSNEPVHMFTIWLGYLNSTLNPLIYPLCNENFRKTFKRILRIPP
Molecule,Kb (ileum of a guinea pig; [1]) [nM],LD50 (Acute toxicity test) [mg/kg],Time (minutes) between introduction of anesthesia and waking (righting reflex) (Male mice of ddy-strain) [min],pA2 (ileum of a guinea pig; [2]),Halothane anesthesia increasing activity / central nervous controlling effect in words (Male mice of ddy-strain),Kb (ileum of a guinea pig) [nM]
"CN1C(=O)CCc2c(OCCCN3CCC(Cc4ccccc4)CC3)cccc21.Cl [Compound 4, 1-Methyl-5-[3-(4-benzyl-1-piperidyl)propoxy]-3,4-dihydrocarbostyril monohydrochloride]",0.01,> 1000,4.2,,,
"Cc1cc(=O)[nH]c2ccc(OCCCN3CCN(c4ccccc4)CC3)cc12 [H, 4-Methyl-6-(4-phenyl-1-piperazinylpropoxy)-carbostyril, reference compound]",0.269,,,,,
"Cc1cc(=O)[nH]c2cc(OCCCN3CCN(Cc4ccc(Cl)cc4)CC3)ccc12 [J, reference compound]",,,8.5,9.13,different Halothane anesthesia increasing activity as compared with control,
"CC(C)(C)NCC(O)c1cc(Cl)c2c(c1)CCC(=O)N2 (stereo not drawn) [K, 8-Chloro-6-(1-hydroxy-2-tert-butylamino-ethyl)-3,4-dihydrocarbostyril monohydrochloride, reference compound]",47900,,,,,
"COc1ccc(CCNC(C)C(O)c2cc(Cl)c3c(c2)CCC(=O)N3)cc1OC (stereo not drawn) [O, 8-Chloro-6-[1-hydroxy-2-(β-3,4-dimethoxy-phenethylamino)propyl]-3,4-dihydrocarbostyril hydrochloride, reference compound]",1480,,,,,
"O=C1CCc2c(cccc2OCCCN2CCC(O)(c3ccccc3)CC2)N1 [Compound 14, 5-{3-[4-(4-Hydroxy-4-phenyl)-1-piperidyl]}-3,4-dihydrocarbostyril]",,> 1000,5.1,9.30,,
"COc1ccc(N2CCN(CC(O)COc3ccc(NC(N)=O)c4c3CCC(=O)N4)CC2)cc1.Cl (stereo not drawn) [S, 5-{2-Hydroxy-3-[4-(4-methoxyphenyl)-1-piperazinyl]propoxy}-8-ureido-3,4-dihydrocarbostyril hydrochloride, reference compound]",10.7,,9.1,,different Halothane anesthesia increasing activity as compared with control,
"CC(C(O)c1cc(Cl)c2c(c1)CCC(=O)N2)N1CCN(c2ccccc2)CC1 (stereo not drawn) [M, 8-Chloro-6-[1-hydroxy-2-(4-phenyl-1-piperazinyl)propyl]-3,4-dihydrocarbostyril monohydrochloride, reference compound]",6460,,,,,
"CCN1C(=O)CCc2c(OCC(O)CN3CCC(Cc4ccccc4)CC3)cccc21.O=C(O)C(=O)O (stereo not drawn) [Compound 7, 1-Ethyl-5-[2-hydroxy-3-(4-benzyl-1-piperidyl)-propoxy]-3,4-dihydrocarbostyril monooxalate]",0.224,> 1000,4.2,,,
"O=C1CCc2c(OCC(O)CN3CCC(Cc4ccccc4)CC3)ccc(Br)c2N1 (stereo not drawn) [Compound 8, 8-Bromo-5-[2-hydroxy-3-(4-benzyl-1-piperidyl)-propoxy]-3,4-dihydrocarbostyril]",4.07,> 1000,5.5,,,
"8-(2-Propionyloxy)-5-[2-hydroxy-3-(4-phenyl-1-piperazinyl)propoxy]-3,4-dihydrocarbostyril hydrochloride [Q, reference compound]",,,8.7,8.65,different Halothane anesthesia increasing activity as compared with control,
"C#CCN1C(=O)CCc2c(OCCCN3CCC(Cc4ccccc4)CC3)cccc21.Cl [Compound 3, 1-Propargyl-5-[3-(4-benzyl-1-piperidyl)-propoxy]-3,4-dihydrocarbostyril monohydrochloride]",0.186,> 1000,5.1,,,
"CC(C(=O)c1cc(Cl)c2c(c1)CCC(=O)N2)N1CCN(c2ccccc2)CC1 (stereo not drawn) [Compound N, 8-Chloro-6-[α-(4-phenyl)-1-piperazinyl)-propionyl]-3,4-dihydrocarbostyril hydrochloride, reference compound]",,,,,,617
"Cc1ccccc1N1CCN(CC(O)COc2ccc(NS(C)(=O)=O)c3c2CCC(=O)N3)CC1 (stereo not drawn) [T, 8-Methanesulfonylamino-5-{2-hydroxy-3-[4-(2-methylphenyl)-1-piperazinyl]propoxy}-3,4-dihydro-carbostyril, reference compound]",15.8,,8.9,,different Halothane anesthesia increasing activity as compared with control,
"COc1ccc(CCNC(C)C(=O)c2cc(Cl)c3c(c2)CCC(=O)N3)cc1OC (stereo not drawn) [L, 8-Chloro-6-[α-(β-3,4-dimethoxyphenethyl-amino)propionyl]-3,4-dihydrocarbostyril monohydrochloride, reference compound]",4790,,,,,
"O=c1ccc2cccc(OCCCN3CCN(c4ccccc4)CC3)c2[nH]1 [F, 8-(4-Phenyl-1-piperazinylpropoxy)carbostyril, reference compound]",,,9.5,8.58,,
"CC(=O)Oc1ccc(OCC(O)CN2CCN(c3ccccc3Cl)CC2)c2c1NC(=O)CC2 (stereo not drawn) [P, 8-Acetyoxy-5-{2-hydroxy-3-[4-(2-chloro-phenyl)-1-piperazinyl]propoxy}-3,4-dihydrocarbostyril hydrochloride, reference compound]",24,,8.9,,different Halothane anesthesia increasing activity as compared with control,
"Cc1cc(=O)[nH]c2cc(OCCCN3CCC(Cc4ccccc4)CC3)ccc12 [Compound 5, 4-Methyl-7-[3-(4-benzyl-1-piperidyl)propoxy]-carbostyril]",0.257,> 1000,4.6,,,
7-[4-β-Chlorophenyl)-1-piperazinylpropoxy]-carbostyril [reference compound],,,32.7,,different Halothane anesthesia increasing activity as compared with control,
"O=c1ccc2ccc(OCCCN3CCN(c4ccccc4)CC3)cc2[nH]1 [G, 7-(4-Phenyl-1-piperazinylpropoxy)carbostyril, reference compound]",,,28.7,,,
"COc1ccc(N2CCN(CC(O)COc3ccc(OCc4ccccc4)c4c3CCC(=O)N4)CC2)cc1 (stereo not drawn) [R, Benzyloxy-5-{2-hydroxy-3-[4-(4-methoxy-phenyl)-1-piperazinyl]propoxy}-3,4-dihydrocarbostyril hydrochloride, reference compound]",,,,9.57,,
"O=C(O)C(=O)O.O=C1CCc2c(OCC(O)CN3CCC(Cc4ccccc4)CC3)cccc2N1Cc1ccccc1 (stereo not drawn) [Compound 12, 1-Benzyl-5-[2-hydroxy-(4-benzyl-1-piperidyl)-propoxy]-3,4-dihydrocarbostyril monooxalate]",0.02,> 1000,4.2,,,
"C=CCN1C(=O)CCc2c(OCC(O)CN3CCC(Cc4ccccc4)CC3)cccc21.O=C(O)C(=O)O (stereo not drawn) [Compound 6, 1-Allyl-5-[2-hydroxy-(4-benzyl-1-piperidyl)-propoxy]-3,4-dihydrocarbostyril monooxalate]",0.288,> 1000,5.6,,,

# From patent publication US4482560A, “Carbostyril derivatives, and antihistaminic agents containing the same” (priority 1979, dated 1984)
